Measurements as given in US4725601A, “Certain imidazo[1,2-a]pyridines useful in the treatment of ulcers” (Fujisawa Pharmaceutical Co., Ltd., priority 1985, dated 1988).

How the values were obtained:
ethanol ulcer = assay: Inhibition on ethanol ulcer; type: in vivo, male Spraque-Dawley rats; details: rat, oral, 30 minutes before absolute ethanol; for Inhibition %: 32 mg/kg, ulcer area vs control
Experimental: (A) Inhibition on ethanol ulcer
Five male Spraque-Dawley rats, aged 7 weeks and weighing about 200 g, were used per group for the study on ethanol ulcer after the fast for 24 hours.
Test compound was suspended in 0.1% methylcellulose aqueous solution, and the suspension (5 ml/kg) was orally given to each rat.
The control group was given a vehicle, i.e. 0.1% methylcellulose aqueous solution (5 ml/kg), alone in the same way.
Absolute ethanol (5 ml/kg) was orally administered 30 minutes after dosing with test compound, and one hour later, the rats were sacrificed and their stomachs were removed. The area of ulcers of each rat was measured. The mean area […] in the medicated group was compared with that in the control group.

stress ulcer = assay: Inhibition on stress ulcer; type: in vivo, Sprague-Dawley rats; details: stress ulcer (immobilization, water bath 22° C., seven hours), rat, oral; for Inhibition %: 32 mg/kg, ulcer area vs control
Experimental: (B) Inhibition on stress ulcer
Five Sprague-Dawley rats weighing about 200 g were used per group. Each animal was immobilized in a small cage and put in a water bath allowing to respire. The temperature of the water bath kept at 22° C. The test compound was administered orally just before the immobilization. Seven hours later, the animals were sacrificed and their stomachs were removed. The stomach was then fixed with 2% formalin. The area of ulcers was measured for each animal. The mean area (mm^2) in the medicated animals was compared with that in the control animals.

Work on `C#CCOCc1c(C)nc2c(OCc3ccccc3C)cccn12` [Test Compound (1), 8-(2-Methylbenzyloxy)-3-(2-propynyloxymethyl)-2-methylimidazo[1,2-a]pyridine] yielded an Inhibition % (ethanol ulcer) of 94.4%, an ED50 (ethanol ulcer) of 1.1 mg/kg and an ED50 (stress ulcer; 7 h) of 0.15 mg/kg. The Inhibition % (stress ulcer) was 100%.

In the case of `C#CCOCc1c(C)nc2c(OCc3ccccc3Cl)cccn12` [Test Compound (2), 8-(2-Chlorobenzyloxy)-3-(2-propynyloxymethyl)-2-methylimidazo[1,2-a]pyridine], the Inhibition % (ethanol ulcer) is reported as 98.2% and the Inhibition % (stress ulcer) is reported as 100%.

`C#CCc1c(C)nc2c(OCc3ccccc3C)cccn12` [Test Compound (3), 8-(2-Methylbenzyloxy)-3-(2-propynyl)-2-methylimidazo[1,2-a]pyridine] showed an Inhibition % (ethanol ulcer) of 91.8% and an Inhibition % (stress ulcer) of 100%.
